From article PMC8546892 (Acta Pharmaceutica Sinica. B, 2021)
Residues, ends and D or L forms follow the SMILES beside them. *: point of attachment. Cbz = O=C(OCc1ccccc1)*

Tested on: GSK-3β
Experiment: Immunoblot of GSK-3β in Trib3-silenced AMs with MG132 or 3MA
Format: cell-based, mouse
Details: immunoblots, Fig. S4C

`CC(C)C[C@@H](C=O)NC(=O)[C@H](CC(C)C)NC(=O)[C@H](CC(C)C)NC(=O)OCc1ccccc1` [MG132] (Cbz-Leu-Leu-Leu-aldehyde) was tested, and the “Trib3 depletion-induced reduction in GSK-3β expression” value was “reversed”.
